Test results reported in BindingDB's records for doi:10.1016/j.bioorg.2016.08.009 (China Pharmaceutical University, 2016).

biological target: T1, Bromodomain-containing protein 4 [44-168] (Human, UniProt O60885); assay: BRD4-BD1 Binding Assay; conditions: 25 °C
T1 construct: 44-168
Method: 11 compounds were evaluated against BRD4-BD1 in vitro with compound 28a as the reference compound. BRD4 (44-168 aa) was bought from Active Motif. After preparing 1× assay buffer (modified HEPES Buffer), target compounds were transferred to assay plate by Echo, and the final concentration of DMSO solution was 0.1%. Then the preparation of protein solution and substrate solution in 1× assay buffer was performed. After that, 5 µL of protein solution was transferred to assay plate and incubated at room temperature for 15 min. The protein concentration was 5 nM. Then 5 µL of substrate solution was added to each well to start reaction with an incubation period for 60 min at room temperature. Finally, 15 µL acceptor and donor solution were added, followed by another incubation period for 60 min at room temperature under subdued light.

| SMILES | IC50 [µM] |
| --- | --- |
| Cc1noc(C)c1-c1ccc2c(c1)N(Cc1ccc(Cl)cc1)CC(=O)N2 [4-(4-Chlorobenzyl)-6-(3,5-dimethylisoxazol-4-yl)-3,4-dihydroquinoxalin-2(1H)-one (5k)] | 0.5 |
| Cc1noc(C)c1-c1ccc2c(c1)N(Cc1ccccc1)C(CO)C(=O)N2 [8(R)-4-benzyl-6-(3,5-dimethylisoxazol-4-yl)-3-(hydroxymethyl)-3,4-dihydroquinoxalin-2(1H)-one (5h)] | 0.65 |
| COc1ccc(CN2c3cc(-c4c(C)noc4C)ccc3N(C)C(=O)[C@H]2C)cc1 [(R)-6-(3,5-dimethylisoxazol-4-yl)-4-(4-methoxybenzyl)-1,3-dimethyl-3,4-dihydroquinoxalin-2(1H)-one (8)] | 0.22 |
| Cc1noc(C)c1-c1ccc2c(c1)N(C1CCCC1)[C@H](C)C(=O)N2 [4(R)-4-cyclopentyl-6-(3,5-dimethylisoxazol-4-yl)-3-methyl-3,4-dihydroquinoxalin 2(1H)-one (5] | 0.37 |

Stronger by IC50, values ahead:

| IC50 [µM] | SMILES |
| --- | --- |
| 0.16 | COc1ccc(CN2c3cc(-c4c(C)noc4C)ccc3NC(=O)C2C)cc1 [2(R)-6-(3,5-dimethylisoxazol-4-yl)-4-(4-methoxybenzyl)-3-methyl-3,4-dihydroquinoxalin-2(1H)-one (5b)] |
| 0.151 | Cc1noc(C)c1-c1ccc2c(c1)N(Cc1ccccc1)[C@H](Cc1ccccc1)C(=O)N2 [(R)-3,4-dibenzyl-6-(3,5-dimethylisoxazol-4-yl)-3,4-dihydroquinoxalin-2(1H)-one (5j)] |
| 0.073 | CC[C@@H]1C(=O)Nc2ccc(-c3c(C)noc3C)cc2N1Cc1ccccc1 [(R)-4-benzyl-6-(3,5-dimethylisoxazol-4-yl)-3-ethyl-3,4-dihydroquinoxalin-2(1H)-one (5i)] |
